# Earlier results in patent US6676959B1, “Nicotine-containing pharmaceutical compositions giving a rapid transmucosal absorption” (priority 1998, dated 2004).
# Details: after starting smoking
smiles,measurement,value
CN1CCCC1c1cccnc1 (stereo not shown) [nicotine],Time to peak blood levels of nicotine,5 to 10 min
